Reference: ChEMBL document CHEMBL1201862, “PubChem BioAssay data set” (2004)
Structures can show the parent of a compound that is named as a salt. Activity calls are given as the source filed them.

Key:
[1] = viability loss in Vero cells – cytotoxicity control for Vif-APOBEC3G degradation inhibitor project, dose response (AID 1117358); assay type: functional; settings: Vero
[2] = HIV-1 Vif–A3G interaction blockers – biochemical, TR-FRET, GST-Vif 1-94, biotin-A3G peptide, dose response retest, primary screen (AID 1117319); assay type: functional;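 also: TR-FRET signal of purified GST-Vif binding a biotinylated A3G peptide; inhibitors lower the FRET signal by blocking Vif and A3G binding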
[3] = Reduced DLD-1 viability, concentration-response, CellTiter-Glo luminescence (AID 1117352); assay type: functional
[4] = cytotoxicity toward Colo320 cells – cell-based, CellTiter-Glo luminescence, IC50, dose response (AID 1117334); assay type: functional; settings: COLO 320
[5] = SNU-C1 cell viability reduction, dose response, CellTiter-Glo luminescence (AID 1117323); assay type: functional, cell-based
[6] = RKO cell viability reduction, dose response, CellTiter-Glo luminescence (AID 1117322); assay type: functional
[7] = cytotoxicity toward HCT116 cells – cell-based, CellTiter-Glo luminescence, IC50, dose response (AID 1117332); assay type: functional; settings: HCT-116
[8] = cytotoxicity toward HT-29 cells – cell-based, CellTiter-Glo luminescence, IC50, dose response (AID 1117330); assay type: functional
[9] = CellTiter-Glo luminescence survival assay, SW480 colon tumor line, concentration-response curve, half-maximal inhibitory concentration (AID 1117338); assay type: functional
[10] = Luminescence Cell-Based Dose Response HTS to Identify Inhibitors of 5'UTR Stem-Loop Driven Prion Protein mRNA Translation in H4 Neuroglioblastoma Cells. [Related pubchem assays: 1827 (Project Summary), 1813 (Primary HTS)]; assay type: functional
[11] = luciferase reporter signal suppression in cells – H4 neuroglioma cells, luminescence, dose response (AID 1990); assay type: functional, cell-based
[12] = alpha-synuclein stem-loop luciferase translation blockers – H4 neuroglioma cells, luminescence, confirmation (AID 1988); assay type: functional, cell-based
[13] = molecular target: Heat shock protein HSP 90-alpha (Homo sapiens, UniProt P07900); test: Luminescence-based dose response biochemical high throughput screening assay for inhibitors of the Heat Shock Protein 90 (HSP90). [Related pubchem assays: 1831 (Summary AID.), 1846 (Confirmation screen.), 1789 (Primary screen.)]
[14] = PAX5 cellular inhibition readout – cell-based, plate reader, dry powder samples, selectivity assay for PAX8 inhibitor project, dose response (AID 743047); assay type: functional;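 also: HEK293 cells carrying a Pax5 driven CD19 promoter luciferase reporter; potency of inhibitors that lower reporter luminescence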
[15] = PAX8-dependent cell viability loss – plate reader, dry powder, dose response (AID 743049); assay type: functional, cell-based
[16] = blockers of HIV-1 envelope-mediated cell-cell fusion – cherry-pick, dose response (AID 652057); assay type: functional, cell-based
[17] = HIV-1 AD8 envelope cell-cell fusion blockers – cherry-pick, dose response (AID 652062); assay type: functional, cell-based;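 also: luciferase signal from cell-cell fusion driven by HIV-1 clade B AD8 Env; potency is for inhibitors of fusion seen as a drop in luminescence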
Paired box protein Pax-8 = Paired box protein Pax-8 (Homo sapiens, UniProt Q06710); test: PAX8 transcriptional activity inhibition in RMG-I – RMG-I cells, luciferase, cherry-pick, dose response (AID 687027); assay type: functional, cell-based;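 also: luciferase reporter driven by Pax8 target thyroperoxidase promoter measured by SteadyGlo luminescence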
[18] = blockers of bursicon-stimulated LGR2 cAMP reporter – cell-based, HEK293, CRE-luciferase reporter, cherry pick, set 2, dose response (AID 743343); assay type: functional;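 also: transfected cells were stimulated with diluted bursicon conditioned medium after compound addition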
[19] = HEK-293T cell viability reduction – luminescence, B-cell screen hits, cytotoxicity control for BCR NF-kB inhibitor project, dose response (AID 489021); assay type: functional, cell-based;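 also: HEK-293T cells carrying an NF-kB luciferase reporter; cells exposed to compound for about 14 hours before viability readout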
[20] = inhibitors acting on PAX2 in cells – cell-based, plate reader, dry powder samples, selectivity assay for PAX8 inhibitor project, dose response (AID 743048); assay type: functional;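 also: HEK293 cells carrying a WT1 promoter luciferase reporter driven by expressed Pax2; potency is for inhibition of Pax2 driven reporter signal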
[21] = blockade of melanocortin 4 receptor signaling – cell-based, plate reader, cherry pick, counter-screen for LGR2 antagonist project, dose response (AID 743444); assay type: functional;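 also: transfected HEK 293 cells stimulated with alpha-MSH peptide; potency of inhibitors of the alpha-MSH evoked signal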
[22] = blockers of HIV-1 ZM109 envelope-driven cell-cell fusion – HeLa effector, CEM target cells, luciferase, cherry-pick, dose response (AID 652058); assay type: functional, cell-based;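 also: luciferase signal from HIV-1 Env mediated cell-cell fusion of effector and target cells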
[23] = off-target signal loss in HeLa-CEM21 co-culture – HeLa F-luc CTL cells, cherry-picked, counter-screen for HIV-1 Env fusion inhibitor project, dose response (AID 652040); assay type: functional, cell-based;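 also: potency for signal decrease marking cytotoxic or nonspecific inhibition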
[24] = rise of 2N DNA cells, HeLa – IC50, dose response (AID 1117349); assay type: functional, cell-based
[25] = rise of 4N DNA cells, HeLa – IC50, dose response (AID 1117351); assay type: functional, cell-based
[26] = molecular target: T1, Microphthalmia-associated transcription factor (Homo sapiens, UniProt O75030); test: reducers of TRPM1 reporter luminescence, concentration series – cell-based, SK-MEL-5, cherry-picked, set 3, MITF inhibitor project, dose response (AID 493073); assay type: functional;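 also: SK-MEL-5 melanoma cells with luciferase driven by the MITF target TRPM1 promoter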
T1 sequence (O75030 whole entry): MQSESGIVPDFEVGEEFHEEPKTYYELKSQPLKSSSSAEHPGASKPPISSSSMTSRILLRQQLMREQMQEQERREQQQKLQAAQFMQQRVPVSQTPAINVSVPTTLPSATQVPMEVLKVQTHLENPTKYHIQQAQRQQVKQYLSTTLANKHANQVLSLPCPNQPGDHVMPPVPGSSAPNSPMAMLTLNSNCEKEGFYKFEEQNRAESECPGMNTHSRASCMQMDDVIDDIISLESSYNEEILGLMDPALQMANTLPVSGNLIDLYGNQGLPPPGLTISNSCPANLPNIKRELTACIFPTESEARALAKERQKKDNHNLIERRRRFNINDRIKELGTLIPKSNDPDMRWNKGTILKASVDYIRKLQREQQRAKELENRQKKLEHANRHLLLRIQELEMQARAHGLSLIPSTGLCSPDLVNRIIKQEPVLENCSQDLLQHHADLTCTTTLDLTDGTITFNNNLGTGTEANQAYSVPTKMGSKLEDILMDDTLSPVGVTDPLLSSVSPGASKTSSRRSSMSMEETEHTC

[27] = molecular target: T2, Histone-lysine N-methyltransferase NSD2 (Homo sapiens, UniProt O96028); assay type: biochemical
T2 sequence (O96028 whole entry): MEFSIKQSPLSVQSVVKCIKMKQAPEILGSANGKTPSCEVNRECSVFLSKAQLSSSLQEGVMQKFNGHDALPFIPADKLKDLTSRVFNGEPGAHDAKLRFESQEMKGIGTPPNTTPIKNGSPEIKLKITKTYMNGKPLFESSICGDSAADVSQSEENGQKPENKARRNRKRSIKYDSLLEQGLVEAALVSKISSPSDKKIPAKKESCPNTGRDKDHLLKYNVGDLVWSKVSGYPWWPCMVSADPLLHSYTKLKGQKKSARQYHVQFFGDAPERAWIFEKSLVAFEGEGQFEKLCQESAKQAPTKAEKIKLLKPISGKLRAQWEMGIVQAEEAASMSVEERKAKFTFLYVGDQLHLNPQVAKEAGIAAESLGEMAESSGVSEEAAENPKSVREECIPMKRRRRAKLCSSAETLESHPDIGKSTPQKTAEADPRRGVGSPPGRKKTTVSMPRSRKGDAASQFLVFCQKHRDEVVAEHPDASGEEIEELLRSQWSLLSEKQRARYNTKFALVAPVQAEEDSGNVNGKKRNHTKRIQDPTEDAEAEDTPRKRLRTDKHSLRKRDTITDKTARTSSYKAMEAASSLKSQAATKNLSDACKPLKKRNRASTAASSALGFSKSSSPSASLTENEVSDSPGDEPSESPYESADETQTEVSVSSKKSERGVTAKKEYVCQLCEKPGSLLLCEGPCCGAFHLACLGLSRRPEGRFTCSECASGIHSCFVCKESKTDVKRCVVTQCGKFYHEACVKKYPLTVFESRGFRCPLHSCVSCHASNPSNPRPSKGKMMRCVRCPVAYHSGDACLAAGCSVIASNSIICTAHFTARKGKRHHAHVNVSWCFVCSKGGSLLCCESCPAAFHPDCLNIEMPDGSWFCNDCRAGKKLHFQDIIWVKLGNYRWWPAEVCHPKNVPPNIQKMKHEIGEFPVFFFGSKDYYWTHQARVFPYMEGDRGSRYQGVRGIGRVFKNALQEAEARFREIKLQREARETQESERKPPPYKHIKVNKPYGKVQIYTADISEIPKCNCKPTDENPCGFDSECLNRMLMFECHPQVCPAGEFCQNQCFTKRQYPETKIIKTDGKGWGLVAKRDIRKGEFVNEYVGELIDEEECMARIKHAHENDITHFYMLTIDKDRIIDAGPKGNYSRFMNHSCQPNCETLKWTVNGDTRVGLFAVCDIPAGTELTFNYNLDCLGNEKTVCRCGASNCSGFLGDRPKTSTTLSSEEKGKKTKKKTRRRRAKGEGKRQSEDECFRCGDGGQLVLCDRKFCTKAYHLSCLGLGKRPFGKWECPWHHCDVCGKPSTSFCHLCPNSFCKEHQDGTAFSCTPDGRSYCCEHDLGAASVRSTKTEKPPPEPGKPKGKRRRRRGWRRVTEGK

[28] = molecular target: T3, Long-chain-fatty-acid--AMP ligase FadD28 (Mycobacterium tuberculosis, UniProt P9WQ59); test: Fluorescence polarization aasay to screen for inhibitors that compete for the binding of FadD28 to a bisubstrate Measured in Biochemical System Using Plate Reader - 2147-01_Inhibitor_Dose_CherryPick_Activity.; assay type: functional, Mycobacterium tuberculosis H37Rv
T3 sequence (P9WQ59 whole entry): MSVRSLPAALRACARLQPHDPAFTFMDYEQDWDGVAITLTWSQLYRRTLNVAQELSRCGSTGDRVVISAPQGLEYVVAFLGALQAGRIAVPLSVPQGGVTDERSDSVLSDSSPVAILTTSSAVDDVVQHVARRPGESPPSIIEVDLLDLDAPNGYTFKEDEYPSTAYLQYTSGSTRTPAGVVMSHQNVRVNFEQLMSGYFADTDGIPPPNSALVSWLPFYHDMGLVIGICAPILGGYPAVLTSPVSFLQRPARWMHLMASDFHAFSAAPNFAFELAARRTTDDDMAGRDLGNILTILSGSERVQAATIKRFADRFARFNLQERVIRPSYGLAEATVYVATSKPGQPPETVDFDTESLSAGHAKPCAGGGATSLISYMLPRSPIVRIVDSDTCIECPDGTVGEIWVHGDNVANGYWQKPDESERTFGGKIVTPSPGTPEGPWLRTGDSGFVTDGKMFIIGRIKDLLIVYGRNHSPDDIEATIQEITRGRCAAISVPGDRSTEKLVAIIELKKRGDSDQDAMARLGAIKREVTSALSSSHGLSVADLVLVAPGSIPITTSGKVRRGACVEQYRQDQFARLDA

[29] = molecular target: T4, Polyadenylate-binding protein 1 (Homo sapiens, UniProt P11940); test: MLLE domain peptide-binding blockers, IC50 – biochemical, fluorescence polarization, FITC-PAM2 peptide, dose response (AID 602259); assay type: functional; settings: read-out: IC50_Mean
[30] = molecular target: T4, Polyadenylate-binding protein 1; test: MLLE binding blockers, Cy5 peptide tracer – biochemical, fluorescence polarization, Cy5-PAM2 peptide, secondary, miRNA deadenylation inhibitor project, dose response (AID 602260); assay type: functional; settings: read-out: IC50_Mean

T4 sequence (P11940 whole entry, the tested form may be a part): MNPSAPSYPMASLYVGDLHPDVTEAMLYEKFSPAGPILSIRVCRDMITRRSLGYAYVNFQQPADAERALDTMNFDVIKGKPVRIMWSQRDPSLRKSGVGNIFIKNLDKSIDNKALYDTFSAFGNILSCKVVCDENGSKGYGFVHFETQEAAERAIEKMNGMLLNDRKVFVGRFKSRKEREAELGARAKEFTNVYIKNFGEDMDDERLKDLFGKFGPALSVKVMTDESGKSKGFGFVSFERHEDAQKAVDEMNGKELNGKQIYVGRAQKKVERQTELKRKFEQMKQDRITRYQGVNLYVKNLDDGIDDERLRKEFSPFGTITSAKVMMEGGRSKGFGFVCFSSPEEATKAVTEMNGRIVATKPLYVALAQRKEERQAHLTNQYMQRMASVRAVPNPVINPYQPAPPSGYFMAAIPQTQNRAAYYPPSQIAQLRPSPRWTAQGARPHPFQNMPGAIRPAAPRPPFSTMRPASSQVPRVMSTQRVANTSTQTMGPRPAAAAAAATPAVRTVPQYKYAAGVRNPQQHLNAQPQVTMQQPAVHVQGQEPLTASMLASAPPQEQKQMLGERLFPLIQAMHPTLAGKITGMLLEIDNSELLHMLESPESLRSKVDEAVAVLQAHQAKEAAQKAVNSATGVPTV
Chain of Paired box protein Pax-8 (Q06710 whole entry): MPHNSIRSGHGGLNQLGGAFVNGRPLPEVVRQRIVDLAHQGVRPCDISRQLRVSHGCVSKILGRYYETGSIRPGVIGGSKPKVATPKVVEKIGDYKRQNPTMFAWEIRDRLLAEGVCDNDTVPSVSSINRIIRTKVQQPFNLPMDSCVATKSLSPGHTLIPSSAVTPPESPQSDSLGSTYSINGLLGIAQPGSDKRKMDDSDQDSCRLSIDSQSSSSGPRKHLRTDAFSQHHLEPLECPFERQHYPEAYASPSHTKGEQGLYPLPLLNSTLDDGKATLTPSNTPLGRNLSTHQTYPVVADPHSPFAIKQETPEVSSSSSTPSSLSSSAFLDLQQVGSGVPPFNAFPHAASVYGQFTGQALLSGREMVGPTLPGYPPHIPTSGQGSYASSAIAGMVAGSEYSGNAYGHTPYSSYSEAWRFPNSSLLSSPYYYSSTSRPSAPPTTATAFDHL

CC(C)(C)c1ccc(-c2nnc(SCCC#N)n2C2CCCC2)cc1
active: CC50 [1] > 40 µM

CC(C)NC(=O)C1CCCN(S(=O)(=O)c2cccs2)C1 (stereo not given)
active: IC50 [2] > 100 µM

CC=CC1=C(C(=O)O)N2C(=O)[C@@H](NC(=O)[C@H](N)c3ccc(O)cc3)[C@H]2SC1
inactive: IC50 [3] > 20 µM | IC50 [4] > 20 µM | IC50 [5] > 20 µM | IC50 [6] > 20 µM | IC50 [7] > 20 µM | IC50 [8] > 20 µM | IC50 [9] > 20 µM

COc1cc(NC(=O)NCCN2CCN(c3ccc(Cl)cc3)CC2)ccc1C
active: EC50 [11] 20.5 µM | CC50 [1] > 40 µM
> 120 µM (not active): EC50 [10] | EC50 [12]

CC(=O)CSc1nnc(-c2ccc3c(c2)OCO3)o1
active: IC50 [13] 9.39 µM

O=C(CN1C(=O)c2ccccc2S1(=O)=O)c1ccccc1Cl
inactive: AC50 [15] > 100 µM | IC50 [19] > 80 µM
active: AC50 [14] 7.1 µM | EC50 [10] 0.364 µM | IC50 [13] 4.2 µM | AC50 [16] 2.17 µM | EC50 [11] 0.283 µM | EC50 [12] 0.104 µM | AC50 [17] 4.22 µM | AC50 (Paired box protein Pax-8) 7.18 µM | AC50 [18] 0.665 µM | AC50 [20] 9.61 µM | AC50 [21] 0.805 µM | AC50 [22] 12.5 µM | AC50 [23] 1.52 µM

CN1CC[C@H](c2c(O)cc(O)c3c(=O)cc(-c4ccccc4Cl)oc23)[C@H](O)C1 [ALVOCIDIB HYDROCHLORIDE]
inactive: IC50 [24] > 10 µM | IC50 [25] > 10 µM

CC[n+]1c(-c2ccccc2)c2cc(N)ccc2c2ccc(N)cc21 [HOMIDIUM BROMIDE]
active: AC50 [26] 2.42 µM | AC50 [27] 0.293 µM | IC50 [6] 3.35 µM | IC50 [7] 4.44 µM | AC50 [28] 27.4 µM
inactive: IC50 [3] > 20 µM | IC50 [4] > 20 µM | IC50 [5] > 20 µM | IC50 [24] > 10 µM | IC50 [29] 40.4 µM | IC50 [30] > 66 µM | IC50 [8] > 20 µM | IC50 [9] > 20 µM | IC50 [25] > 10 µM
